From PubChem BioAssay (NCI)
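Cultured in 96-well plates, cells were exposed to test compound for 48 hours across five concentrations. At the GI50, growth is halved. TGI: total growth inhibition.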

Experiments:
Assay in all cases: NCI-60 cell line screen, 48 h
[1] = tested on: RPMI-8226 leukemia
[2] = tested on: HOP-62 NSCLC
[3] = tested on: UACC-257 melanoma
[4] = tested on: SNB-19 CNS
[5] = tested on: MALME-3M melanoma
[6] = tested on: SF-539 CNS
[7] = tested on: LOX IMVI melanoma
[8] = tested on: CAKI-1 renal
[9] = tested on: OVCAR-3 ovarian
[10] = tested on: HOP-92 NSCLC

Row | SMILES | TGI [1] [µM] | TGI [2] [µM] | TGI [3] [µM] | TGI [4] [µM] | TGI [5] [µM] | TGI [6] [µM] | TGI [7] [µM] | TGI [8] [µM] | TGI [9] [µM] | TGI [10] [µM] | GI50 [1] [µM] | GI50 [2] [µM] | GI50 [3] [µM] | GI50 [4] [µM] | GI50 [5] [µM] | GI50 [6] [µM] | GI50 [8] [µM] | GI50 [9] [µM] | GI50 [10] [µM]
1 | CCOP(=O)(OCC)/C(F)=C/c1ccc(F)cc1 | > 100 | > 100 | > 100 | > 100 | > 100 | > 100 | > 100 | > 100 | > 100 | > 100 |  |  |  |  |  |  |  |  | 
2 | CC(=O)O[C@H]1CC[C@@]2(C)C(=CC[C@@H]3[C@@H]2CC[C@]2(C)C(=O)/C(=C\c4ccccc4)C[C@@H]32)C1 | > 100 | > 100 | > 100 | > 100 | > 100 | > 100 | > 100 | > 100 | > 100 | > 100 |  |  |  |  |  |  |  |  | 
3 | COC1=C(OC)C(=O)c2cc(C)c(=O)c(C)cc2C1=O | 40.7 | 36.6 | 25.6 | 37.6 | 30.8 | 33.1 | > 39 | 31.7 | 24 | 30.4 |  |  |  |  |  |  |  |  | 
4 | CCCCCCCC(=O)N1C2CC3CCC2(CS1(=O)=O)C3(C)C (stereo unspecified) | 41.5 | 44.3 | 68.6 | 76.5 | 34 | 41.5 |  | 61.7 | > 10 | 68 |  |  |  |  |  |  |  |  | 
5 | CC(=O)C1=C(C)N2C(=NC3=C(CCc4ccccc43)C2c2ccc(Cl)cc2)S1 (stereo unspecified) | 12.8 | > 100 | > 100 | > 100 | > 100 | > 100 | > 100 | > 100 | > 100 | > 100 |  |  |  |  |  |  |  |  | 
6 | O=C1C(CN2CCCC2)CCC1CN1CCCC1 (stereo unspecified) | 34.9 | > 100 | 32.6 | > 100 | 29 | 35.3 | > 51.9 | 24.6 | 32.1 | 30.1 |  |  |  |  |  |  |  |  | 
7 | Cn1c2ccccc2n2c3ccccc3c3nnc(N)c-3c12 | > 100 | > 86.5 | > 100 | 25.5 | 32.3 |  | > 100 | > 100 | > 100 | > 100 |  |  |  |  |  |  |  |  | 
8 | N#Cc1nc(CCC(C(=O)O)N2C(=O)c3ccccc3C2=O)oc1N (stereo unspecified) | > 100 | > 100 | > 100 | > 100 | > 100 | > 100 |  | > 100 | > 100 | > 100 |  |  |  |  |  |  |  |  | 
9 | O=c1cc(O)c1=O | > 100 | > 100 | > 100 | > 100 | > 100 | > 100 | > 100 | > 100 | > 100 | > 100 |  |  |  |  |  |  |  |  | 
10 | N#CC(NNC(=O)c1ccccc1O)c1ccccc1O (stereo unspecified) | > 100 | > 100 | 83 |  | 96.1 | 40.9 | 97.3 | 28.4 | > 100 | > 100 |  |  |  |  |  |  |  |  | 
11 | C/C(=N\NC(N)=O)C(CN1CCOCC1)C(c1ccccc1)c1c(O)c2ccccc2oc1=O (stereo unspecified) | > 100 |  | > 100 | > 100 | > 100 | > 100 | > 100 | > 100 | > 100 | > 100 |  |  |  |  |  |  |  |  | 
12 | C[C@H]1CC(=O)C[C@@H]2CC[C@@H]3[C@H](CC[C@]4(C)C(OC(=O)c5cccc6c(=O)c7ccccc7[nH]c56)CC[C@@H]34)[C@]21C (stereo partly specified) | 55.6 | > 100 | > 100 | > 100 | > 100 | > 100 | > 100 | 86 | > 100 | 70.8 |  |  |  |  |  |  |  |  | 
13 | CC(=O)OCC1OC(NC(=S)Nn2c(-c3ccccc3)nc3ccccc3c2=O)C(OC(C)=O)C(OC(C)=O)C1OC(C)=O (stereo unspecified) | > 100 | > 100 | > 100 | > 100 | > 100 | > 100 | > 100 | > 100 | > 100 | > 100 |  |  |  |  |  |  |  |  | 
14 | CCOC(=O)c1sc(N)nc1N1CCCC1 | > 100 | > 100 | > 100 | > 100 | > 100 | > 100 | > 100 | > 100 | > 100 | > 100 |  |  |  |  |  |  |  |  | 
15 | NC(Cc1c2ccccc2cc2ccccc12)C(=O)O (stereo unspecified) |  | > 100 | > 100 | > 100 | > 100 | > 100 | > 100 | > 100 | > 100 | > 100 |  |  |  |  |  |  |  |  | 
16 | COc1ccc2nc3cc(Cl)ccc3c(NCCCN(C)CCCNc3ccc4ncn5c6ccccc6c(=O)c3c45)c2c1 | > 25 | 6.1 | 6.81 | 5.86 | 7.09 | 5.26 |  | 4.36 | 6.79 | > 16.9 |  |  |  |  |  |  |  |  | 

Row | SMILES | TGI [1] [µM] | TGI [2] [µM] | TGI [3] [µM] | TGI [4] [µM] | TGI [5] [µM] | TGI [6] [µM] | TGI [7] [µM] | TGI [8] [µM] | TGI [9] [µM] | TGI [10] [µM] | GI50 [1] [µM] | GI50 [2] [µM] | GI50 [3] [µM] | GI50 [4] [µM] | GI50 [5] [µM] | GI50 [6] [µM] | GI50 [8] [µM] | GI50 [9] [µM] | GI50 [10] [µM]
17 | FC(F)(F)c1ccc2c(c1)nc(Cc1ccc(Cl)cc1)n2CC1CCCN2CCCCC12 (stereo unspecified) |  | 27.7 | 8.41 | 26.9 | 3.8 |  | 7.85 | 30.4 | 15.2 | 20.4 |  |  |  |  |  |  |  |  | 
18 | COc1cc(N(CCC#N)CCC#N)ccc1/C(N=Nc1cccc([N+](=O)[O-])c1)=N\NC(=O)c1ccc(C)cc1 | > 100 | > 100 | 60.9 | > 100 | > 100 |  | > 100 | > 100 | > 100 | > 100 |  |  |  |  |  |  |  |  | 
19 | Cc1nnc(NS(=O)(=O)c2ccc(N=Nc3c(O)c(C(=O)O)cc4ccccc34)cc2)s1 | > 100 | > 100 | > 100 | > 100 | > 100 | > 100 |  | > 100 | > 100 | > 100 |  |  |  |  |  |  |  |  | 
20 | CSc1ccc(/C=C2\N=C(c3ccccc3)N(NC(=O)c3c(Cl)c(Cl)c(Cl)c(Cl)c3-c3nc4ccccc4[nH]3)C2=O)cc1 |  | > 100 | > 100 | > 100 | > 100 | > 100 | > 100 | 85.3 | > 100 | 52.2 |  |  |  |  |  |  |  |  | 
21 | O[C@@H]1CCCCN1Cc1cc2cc3c(cc2c2cc(OCc4ccccc4)ccc12)OCO3 | 3.38 | 2.89 | 3.66 | 3.59 | 3.37 | 2.96 |  | 2.91 | 2.95 | 2.93 | 1.41 | 1.55 | 1.86 | 1.63 | 1.66 | 1.55 | 1.57 | 1.5 | 1.35
22 | C=C1C(=O)O[C@H]2[C@@H]3O[C@@](C)(CC/C=C(\C)CCC[C@@H]2C)[C@H](O)C[C@@H]13 |  | 23.1 | 27.4 |  | 53.3 | 5.6 | 16.2 | 4.53 | 9.54 | > 100 |  |  |  |  |  |  |  |  | 
23 | O=[N+]([O-])C1=Cc2c(O)ccc(O)c2C2c3ccccc3NC12 (stereo unspecified) | 63.6 | 25 | 29.3 | 34.5 |  | 63 | > 52.7 | 8.99 | 19.3 | 20.7 |  |  |  |  |  |  |  |  | 
24 | O=[N+]([O-])c1cccc(-c2ccc([C@H]3CC(c4ccc(Cl)cc4)=NN3)o2)c1 | 45.6 | 57.9 | 83.9 | 89.7 | 71.6 |  |  | 60.5 | 43.3 | 67.6 |  |  |  |  |  |  |  |  | 
25 | CCOc1cc(NC(C)=O)ccc1C(=O)NN1C(=O)/C(=C/c2ccc(Cl)cc2)N=C1c1ccccc1 | > 100 | > 100 | > 100 | > 100 |  | > 100 | > 100 | > 100 | > 100 | > 100 |  |  |  |  |  |  |  |  | 
26 | COCc1nc(C#N)c(N)o1 | > 10 | > 10 | > 10 | > 10 | > 10 | > 10 | > 10 | > 10 |  | > 10 |  |  |  |  |  |  |  |  | 
27 | Nc1cc2c(C3OC(CO)C(O)C3O)[nH]nc2c(=S)[nH]1 (stereo unspecified) | > 100 | > 100 | > 100 | > 100 | > 100 | > 100 |  | > 100 |  | > 100 |  |  |  |  |  |  |  |  | 
28 | Cc1c(S(=O)(=O)/N=C(\NO)Nc2ccc(Cl)cc2)sc2ccc(Cl)cc12 |  | 36.7 | 33.3 | 35.2 | 33.8 | 42.1 | 32.2 | 34.3 | 25.8 | 28.8 |  |  |  |  |  |  |  |  | 
29 | CC(=O)OCC1OC(Sc2nc(-c3ccccc3)c(C#N)c(=O)n2C2OC(COC(C)=O)C(OC(C)=O)C(OC(C)=O)C2OC(C)=O)C(OC(C)=O)C(OC(C)=O)C1OC(C)=O (stereo unspecified) | > 100 | > 100 | > 100 |  |  | > 100 | > 100 | > 100 | > 100 | > 100 |  |  |  |  |  |  |  |  | 
30 | CSC(SC)=C1Sc2cccc(Cl)c2S1 | > 100 | > 100 | > 100 | > 100 | > 100 | > 100 | > 100 | > 100 |  | 65.8 |  |  |  |  |  |  |  |  | 
31 | CC(C)=CCN1c2ccccc2[C@@]2(CC=C(C)C)CCN(C)[C@@H]12 | 51 | 55 |  | 52.6 | 38.4 | 64.9 | 34 | > 100 | 57.3 | > 100 |  |  |  |  |  |  |  |  | 
32 | CN(C)CCC(C#N)(c1ccccc1)c1ccccc1 | 80.5 | > 100 | 59.2 | > 100 | > 100 | > 100 |  | > 100 | > 100 | 66.6 |  |  |  |  |  |  |  |  | 
